{"source": "paper PMC6684226", "about": "“Neuropeptide B mediates female sexual receptivity in medaka fish, acting in a female-specific but reversible manner” (eLife, 2019)", "key": {"[1]": {"test_system": "npba expression in Vs/Vp and PMm/PMg", "assay": "npba expression in brain nuclei of gonad-intact medaka after immersion drug treatment (in situ hybridization)", "assay_type": "in vivo, medaka (Oryzias latipes)", "conditions": "ovary-intact adult females, n = 5", "excerpt": "(§1) DNA fragments of 645 bp, 647 bp, and 1520 bp corresponding to nucleotides 1–645 of the medaka npba cDNA (GenBank accession number NM_001308979), 1–647 of the medaka npbb EST clone of National BioResource Project (NBRP) Medaka (http://www.shigen.nig.ac.jp/medaka/) (clone ID: olova57o22), and 1699–3218 of the medaka npbwr2 cDNA (deposited in DDBJ/EMBL/GenBank with accession number LC375958), respectively, were PCR-amplified and subcloned into the pGEM-Teasy vector (Promega, Madison, WI). The resultant constructs were used to generate digoxigenin (DIG)-labeled cRNA probes for npba, npbb, and npbwr2 by using the DIG RNA Labeling Mix and T7 RNA polymerase (Roche Diagnostics). The procedure for in situ hybridization has been described previously ([Hiraki et al., 2012]). In brief, the brain, pituitary, and/or spinal cord were fixed in 4% paraformaldehyde (PFA), embedded in paraffin, and cut into 10 μm sections in the coronal plane. Hybridization signals were visualized by using alkaline phosphatase-conjugated anti-DIG antibody (Roche Diagnostics) and 5-bromo-4-chloro-3-indolyl phosphate/nitro blue tetrazolium (BCIP/NBT) substrate (Roche Diagnostics). Color development was allowed to proceed overnight or was stopped after 2–3 hr (for quantification of npba expression in Vs/Vp) or 15–30 min (for quantification of npba expression in PMm/PMg) to avoid saturation. All sections in each comparison were processed simultaneously under the same conditions.\n(§2) To obtain quantitative data, the number of npba/npbb-expressing neurons in each brain nucleus or each brain/spinal cord region was counted manually. In some analyses, the resulting sections were photographed and converted to black and white binary images by thresholding using Adobe Photoshop (Adobe Systems, San Jose, CA), and the total area of npba/npbb expression was calculated by using ImageJ (http://rsbweb.nih.gov/ij/). The threshold was set manually by visual inspection of the images to successfully separate specific signals from background noise. Brain nuclei were identified by using medaka brain atlases ([Anken and Bourrat, 1998]; [Ishikawa et al., 1999]); http://www.shigen.nig.ac.jp/medaka/medaka_atlas/), supplemented with information from our Nissl-stained sections ([Kawabata et al., 2012]).\n(§3) In another experiment, females with intact ovaries were treated with 100 ng/ml of KT or AI (Fadrozole; Sigma-Aldrich, St. Louis, MO) by immersion in water for 9 days. […] These fish were sampled on days 0 (untreated controls), 2, 5, and 9. The sex steroid concentration used was based on previously reported serum steroid levels in medaka ([Foran et al., 2002]; [Foran et al., 2004]; [Tilton et al., 2003])."}, "[2]": {"test_system": "estradiol-17β (E2) in the brain", "assay": "Brain levels of E2 in KT-treated females (LC-MS/MS)", "assay_type": "in vivo, medaka (Oryzias latipes)", "conditions": "females treated with 100 ng/ml KT by immersion; within 2 days, low during remainder of treatment; n = 4 per sampling day; p<0.0001 on days 2, 5, and 9", "protocol": "as §3\nDissected whole brains were frozen and stored at −80°C until analysis. Levels of E2 in the brains were analyzed by liquid chromatography coupled to tandem mass spectrometry (LC-MS/MS) at Aska Pharmamedical (Kanagawa, Japan)."}, "[3]": {"test_system": "npbb expression in Vs/Vp and PMm/PMg/PPp", "assay": "npbb expression in brain nuclei of gonadectomized medaka after sex steroid supplementation (in situ hybridization)", "assay_type": "in vivo, medaka (Oryzias latipes)", "conditions": "n = 5", "excerpt": "DNA fragments of 645 bp, 647 bp, and 1520 bp corresponding to nucleotides 1–645 of the medaka npba cDNA (GenBank accession number NM_001308979), 1–647 of the medaka npbb EST clone of National BioResource Project (NBRP) Medaka (http://www.shigen.nig.ac.jp/medaka/) (clone ID: olova57o22), and 1699–3218 of the medaka npbwr2 cDNA (deposited in DDBJ/EMBL/GenBank with accession number LC375958), respectively, were PCR-amplified and subcloned into the pGEM-Teasy vector (Promega, Madison, WI). The resultant constructs were used to generate digoxigenin (DIG)-labeled cRNA probes for npba, npbb, and npbwr2 by using the DIG RNA Labeling Mix and T7 RNA polymerase (Roche Diagnostics). […] Color development was allowed to proceed overnight or was stopped after 2–3 hr (for quantification of npba expression in Vs/Vp) or 15–30 min (for quantification of npba expression in PMm/PMg) to avoid saturation. […]\nTo obtain quantitative data, the number of npba/npbb-expressing neurons in each brain nucleus or each brain/spinal cord region was counted manually. In some analyses, the resulting sections were photographed and converted to black and white binary images by thresholding using Adobe Photoshop (Adobe Systems, San Jose, CA), and the total area of npba/npbb expression was calculated by using ImageJ (http://rsbweb.nih.gov/ij/). […]"}, "[4]": {"test_system": "npbb expression in Vs/Vp and PMm/PMg/PPp", "assay": "npbb expression in brain nuclei of gonad-intact medaka after immersion drug treatment (in situ hybridization)", "assay_type": "in vivo, medaka (Oryzias latipes)", "conditions": "n = 5", "excerpt": "as §1, §2, §3"}, "[5]": {"test_system": "npba expression in Vs/Vp and PMm/PMg", "parameters": "method as in Kikuchi et al., 2019", "conditions": "adult males treated with estrogen; ref Kikuchi et al., 2019; cited from earlier work"}, "[6]": {"test_system": "npba expression in Vs/Vp and PMm/PMg", "conditions": "estrogen replacement, ref Hiraki et al., 2014; cited from earlier work", "excerpt": "We determined whether the sexual phenotype of npba expression can be reversed from the female to the male pattern, and vice versa, by altering the adult sex steroid milieu. […] Here, we first tested whether npba expression in these brain nuclei can be induced in males by castration and sex steroid supplementation."}, "[7]": {"test_system": "ER expression in Vs/Vp and PMm/PMg", "conditions": "males treated with estrogen; ref Hiraki et al., 2012; cited from earlier work", "excerpt": "Importantly, our results provide insight into the mechanisms underlying the reversal of sexually dimorphic npba expression. […] Considering these findings, it seems plausible that this estrogen-induced npba expression is not fully realized until sufficient ER expression is achieved."}, "Cckar expression": {"test_system": "Cckar expression", "conditions": "ref Xu et al., 2012, cited from earlier work", "excerpt": "Another distinctive aspect of npba expression is the bidirectional reversibility of sexual dimorphism (both from female-typical to male-typical pattern and from male-typical to female-typical pattern). […] In mice, for example, the cholecystokinin receptor gene (Cckar) implicated in female sexual receptivity is expressed in the ventr ..."}, "[8]": {"test_system": "npba expression in the whole brain", "assay": "npba expression in whole brain of ovariectomized ΔERE mutant females treated with E2 (real-time PCR)", "assay_type": "in vivo, medaka (Oryzias latipes)", "conditions": "OVX + 100 ng/ml E2, 6 days, n = 6 per group"}}}
{"compound": "C[C@]12CC(=O)[C@H]3[C@@H](CCC4=CC(=O)CC[C@@]43C)[C@@H]1CC[C@@H]2O", "note": "[KT, 11-ketotestosterone]", "values": [{"measurement": "number of npba-expressing neurons in PMm/PMg", "setting": "[1]; 100 ng/ml KT by immersion, 9 days", "result": "unchanged"}, {"measurement": "total area of npba expression in Vs/Vp", "setting": "[1]; 100 ng/ml KT by immersion, 9 days, p=0.0002 on day 2, p<0.0001 on days 5 and 9", "result": "undetectable or nearly undetectable levels"}, {"measurement": "number of npba-expressing neurons in Vs/Vp", "setting": "[1]; 100 ng/ml KT by immersion, days 0, 2, 5, 9, p<0.0001 on days 5 and 9 versus day 0", "result": "undetectable or nearly undetectable levels"}, {"measurement": "total area of npba expression in PMm/PMg", "setting": "[1]; 100 ng/ml KT by immersion, p=0.0068 on day 9", "result": "significant decline"}, {"measurement": "brain E2 levels, percent of untreated controls", "setting": "[2]", "result": "less than 5%"}, {"measurement": "npbb expression in Vs/Vp and PMm/PMg/PPp after ovariectomy (restoration)", "setting": "[3]; ovariectomized adult females, 100 ng/ml KT, 6 days", "result": "not by KT"}, {"measurement": "npbb expression in PMm/PMg/PPp", "setting": "[4]; ovary-intact adult females, 100 ng/ml KT by immersion, number of neurons p=0.0038 on day 9, total area p=0.0021 and <0.0001 on days 5 and 9", "result": "significant decrease"}, {"measurement": "number of npbb-expressing neurons in Vs/Vp", "setting": "[4]; ovary-intact adult females, 100 ng/ml KT by immersion, p<0.0001 on days 5 and 9", "result": "undetectable or nearly undetectable levels"}, {"measurement": "total area of npbb expression in Vs/Vp", "setting": "[4]; ovary-intact adult females, 100 ng/ml KT by immersion, p=0.0235, <0.0001, <0.0001 on days 2, 5, and 9", "result": "undetectable or nearly undetectable levels"}]}
{"compound": "estrogen", "values": [{"measurement": "emergence of Npba-expressing neurons in adult males", "setting": "[5]", "result": "emerged in adult males treated with estrogen"}, {"measurement": "npba expression in Vs/Vp and PMm/PMg of ovariectomized females", "setting": "[6]", "result": "restored by estrogen replacement"}, {"measurement": "ER expression in Vs/Vp and PMm/PMg of males", "setting": "[7]", "result": "induces ER expression"}, {"measurement": "Cckar expression in ventromedial nucleus of the hypothalamus, males", "setting": "Cckar expression; adult males treated with estrogen", "result": "does not induce expression of Cckar"}, {"measurement": "Cckar expression in ventromedial nucleus of the hypothalamus, females", "setting": "Cckar expression; ovariectomized adult females treated with estrogen", "result": "reinstated by treatment with estrogen"}]}
{"compound": "N#Cc1ccc(C2CCCc3cncn32)cc1", "note": "(stereo not drawn) [AI, Fadrozole]", "values": [{"measurement": "number of npba-expressing neurons in Vs/Vp (compared with KT treatment)", "setting": "[1]; 100 ng/ml AI by immersion, p<0.0001 on days 2, 5, and 9", "result": "essentially the same results"}, {"measurement": "total area of npba expression in Vs/Vp (compared with KT treatment)", "setting": "[1]; 100 ng/ml AI by immersion, p=0.0063 and 0.0025 on days 5 and 9", "result": "essentially the same results"}, {"measurement": "total area of npba expression in PMm/PMg (compared with KT treatment)", "setting": "[1]; 100 ng/ml AI by immersion, p=0.0108 on day 9", "result": "essentially the same results"}, {"measurement": "npbb expression in PMm/PMg/PPp (significant decrease)", "setting": "[4]; ovary-intact adult females, 100 ng/ml AI by immersion, 9 days", "result": "not AI treatment"}, {"measurement": "number of npbb-expressing neurons in Vs/Vp", "setting": "[4]; ovary-intact adult females, 100 ng/ml AI by immersion, p=0.0002 and <0.0001 on days 5 and 9", "result": "undetectable or nearly undetectable levels"}, {"measurement": "total area of npbb expression in Vs/Vp", "setting": "[4]; ovary-intact adult females, 100 ng/ml AI by immersion, p=0.0013 and 0.0009 on days 5 and 9", "result": "undetectable or nearly undetectable levels"}]}
{"compound": "C[C@]12CC[C@@H]3c4ccc(O)cc4CC[C@H]3[C@@H]1CC[C@@H]2O", "note": "[E2, estradiol-17β]", "values": [{"measurement": "npba expression in the whole brain, mutant versus wild-type females", "setting": "[8]; p=0.0023", "result": "not able to restore npba expression to the level present in wild-type females"}, {"measurement": "npba expression in the whole brain after ovariectomy and E2 treatment", "setting": "[8]; ΔERE mutant females", "result": "restored by E2 treatment"}, {"measurement": "npbb-expressing neurons in Vs/Vp of castrated males", "setting": "[3]; castrated adult males, 100 ng/ml E2, 6 days, p<0.0001", "result": "induced a few npbb-expressing neurons in Vs/Vp"}, {"measurement": "npbb-expressing neurons in Vs/Vp", "setting": "[4]; testis-intact adult males, 100 ng/ml E2 by immersion, p=0.0369", "result": "a few npbb-expressing neurons were newly induced in Vs/Vp"}]}
